Data published in patent publication US6596692B1, “Substance P analogs for the treatment of cancer” (Dabur Research Foundation, priority 2000, dated 2003).
Non-standard residues stand in square brackets, D forms with d. Residues, ends and D or L forms follow the SMILES beside them. Ac5c = NC1(C(=O)O)CCCC1

Assays:
[1] = system: PTC (colon); experiment: In vitro cytotoxic activity, MTT assay, 72 hours; format: cell-based, human
Procedure: (§1) In vitro Cytotoxic Activity of the Novel Synthesized Peptide Analogs
(§2) The cytotoxic activity of synthesized peptides was tested on six human tumor cell lines namely MCF7 (breast), U373 (glioblastoma), PTC, (colon), L132 (lung), Su.86.86 (pancreas), and KB (oral). The tumor cells were collected at exponential growth phase and resuspended in medium (1.5×10^6 cells/ml in RPMI 1640 containing 10% FBS). 150 μL of medium was added to the wells of a 96-well tissue culture plate (Nunc, Denmark) followed by 30 μl of cell suspension. The plate was left in an incubator (37° C., 5% CO2) overnight. 20 μl of the peptide (100 pM to 10 μM concentration) was added to marked wells of the 96-well plate. Each concentration was plated in triplicate. 20 μl of medium alone was added to control wells while wells without cells served as blanks. A total volume of 200 μL was ensured in each well and plate was left in incubator (37° C., 5% CO2). After 72 hours of incubation an MTT assay was performed and percentage cytotoxicity was calculated with respect to control cells.

[2] = system: Su.86.86 (pancreas); experiment: In vitro cytotoxic activity, MTT assay, 72 hours; format: cell-based, human; conditions: Su8686, 100 pM
Procedure: as §1, §2

[3] = system: MCF7 (breast); experiment: In vitro cytotoxic activity, MTT assay, 72 hours; format: cell-based, human; conditions: MCF-7, 100 pM
Procedure: as §1, §2

[4] = system: human colon adenocarcinoma (PTC) xenografts; experiment: In vivo anti tumor activity on PTC tumor xenografts; design: species or system Balb/c athymic nude mice; conditions: 4.25 μg intravenously twice a day; for Tumor volumes, Average: group average
Procedure: In vivo Anti Tumor Activity of Substance P Analogs on PCT Tumor Xenografts Protocol The anti tumor activity of substance P analogs was studied in human colon adenocarcinoma (PTC) xenografts in nude mice. PTC tumor xenografts were grown in Balb/c athymic nude mice by subcutaneous inoculation of a single cell suspension of PTC cells (15×10^6 cells/100 μL). The tumor bearing animals were divided into 4 groups of three animals each including one group comprising untreated control animals. Treatment with Substance P Receptor Antagonists was initiated when the average tumor volumes, as measured using a vernier caliper, were between 400-800 mm^3. SEQ ID NO:5, SEQ ID NO:7 and SEQ ID NO:8 peptides were prepared at a concentration of 42.5 μg/ml and intravenously administered to the assigned group of tumor bearing animals at a dose of 4.25 μg/100 μL twice a day so that the total dose of 8.5 μg was administered to each animal. The treatment was continued for a period of 10 days. The antitumor activity of the compounds was monitored by measuring 15 tumor volumes every fourth day using the formula W*W*L*0.4 (W=smaller diameter, L=larger diameter). The percentage inhibition of tumor growth was calculated using. the formula (1−tumor volume-treated/ tumor volume-control)×100.

CC(C)C[C@H](NC(=O)[C@@H](Cc1c[nH]c2ccccc12)NC(=O)[C@H](Cc1ccccc1)NC(=O)[C@@H](Cc1c[nH]c2ccccc12)NC(=O)[C@H](CCC(N)=O)NC(=O)[C@@H](Cc1ccccc1)NC(=O)[C@@H]1CCCN1C(=O)[C@H](CCCCN)NC(=O)[C@@H]1CCCN1C(=O)[C@H](N)CCCNC(=N)N)C(=O)NC1(C(N)=O)CCCC1 [SEQ ID NO: 5, D-Arg-Pro-Lys-Pro-D-Phe-Gln-D-Trp-Phe-D-Trp-Leu-Ac5c-NH2] (H-[dR]PKP[dF]Q[dW]F[dW]L[Ac5c]-NH2; N-terminus assumed)
Percentage cytotoxicity ([1]; 100 pM): Nil
Percentage cytotoxicity ([1]; 1 nM): 3.1 ± 0.5%
Percentage cytotoxicity [2]: Nil
Percentage cytotoxicity [3]: Nil
Tumor volumes, animal I ([4]; Day 6): 307.8 mm^3
Tumor volumes, animal II ([4]; Day 6): 520 mm^3
Tumor volumes, animal III ([4]; Day 6): 687.7 mm^3
Tumor volumes, Average ([4]; Day 6): 505.1 mm^3
Tumor volumes, animal I ([4]; Day 8): 748.8 mm^3
Tumor volumes, animal II ([4]; Day 8): 1149.2 mm^3
Tumor volumes, animal III ([4]; Day 8): 1411.2 mm^3
Tumor volumes, Average ([4]; Day 8): 1103.0 mm^3
Tumor volumes, animal I ([4]; Day 12): 2049 mm^3
Tumor volumes, animal II ([4]; Day 12): 3080.3 mm^3
Tumor volumes, animal III ([4]; Day 12): 3840.0 mm^3
Tumor volumes, Average ([4]; Day 12): 2989.7 mm^3
Tumor volumes, animal I ([4]; Day 15): 3310 mm^3
Tumor volumes, animal II ([4]; Day 15): 3360 mm^3
Tumor volumes, animal III ([4]; Day 15): 4480.0 mm^3
Tumor volumes, Average ([4]; Day 15): 3716.6 mm^3
Tumor volumes, animal I ([4]; Day 19): 3582 mm^3
Tumor volumes, animal II ([4]; Day 19): 1465.6 mm^3
Tumor volumes, animal III ([4]; Day 19): 3499.2 mm^3
Tumor volumes, Average ([4]; Day 19): 2848.9 mm^3
Tumor volumes, animal II ([4]; Day 22): 100 mm^3
Tumor volumes, animal III ([4]; Day 22): 2560.0 mm^3
Tumor volumes, Average ([4]; Day 22): 1330.0 mm^3
